Experimental findings from patent publication US20250215014A1, “KINASE INHIBITORS, PREPARATION METHODS AND USES THEREOF” (InventisBio Co., Ltd., priority 2022, published 2025) are described below.

Test [1] addresses DGKa (Homo sapiens (Human), UniProt P23743). The experiment in a line: DGK ADP-Glo Kinase Assay (DGKa). Type of test: biochemical. The conditions noted are these: 10 nM DGKa, 15 uM ATP. How it is done: (§1) Luminescence was recorded using an Tecan SPARK microplate reader.
For test [2], the target named is DGKz (Homo sapiens (Human), UniProt Q13574). Briefly: DGK ADP-Glo Kinase Assay (DGKz). It is filed as biochemical. The following applies: 5 nM DGKz, 15 uM ATP. How it is done:
as §1
For orientation: In ADP-Glo the light output rises with the ADP produced.

Chain of DGKz (Q13574 whole entry): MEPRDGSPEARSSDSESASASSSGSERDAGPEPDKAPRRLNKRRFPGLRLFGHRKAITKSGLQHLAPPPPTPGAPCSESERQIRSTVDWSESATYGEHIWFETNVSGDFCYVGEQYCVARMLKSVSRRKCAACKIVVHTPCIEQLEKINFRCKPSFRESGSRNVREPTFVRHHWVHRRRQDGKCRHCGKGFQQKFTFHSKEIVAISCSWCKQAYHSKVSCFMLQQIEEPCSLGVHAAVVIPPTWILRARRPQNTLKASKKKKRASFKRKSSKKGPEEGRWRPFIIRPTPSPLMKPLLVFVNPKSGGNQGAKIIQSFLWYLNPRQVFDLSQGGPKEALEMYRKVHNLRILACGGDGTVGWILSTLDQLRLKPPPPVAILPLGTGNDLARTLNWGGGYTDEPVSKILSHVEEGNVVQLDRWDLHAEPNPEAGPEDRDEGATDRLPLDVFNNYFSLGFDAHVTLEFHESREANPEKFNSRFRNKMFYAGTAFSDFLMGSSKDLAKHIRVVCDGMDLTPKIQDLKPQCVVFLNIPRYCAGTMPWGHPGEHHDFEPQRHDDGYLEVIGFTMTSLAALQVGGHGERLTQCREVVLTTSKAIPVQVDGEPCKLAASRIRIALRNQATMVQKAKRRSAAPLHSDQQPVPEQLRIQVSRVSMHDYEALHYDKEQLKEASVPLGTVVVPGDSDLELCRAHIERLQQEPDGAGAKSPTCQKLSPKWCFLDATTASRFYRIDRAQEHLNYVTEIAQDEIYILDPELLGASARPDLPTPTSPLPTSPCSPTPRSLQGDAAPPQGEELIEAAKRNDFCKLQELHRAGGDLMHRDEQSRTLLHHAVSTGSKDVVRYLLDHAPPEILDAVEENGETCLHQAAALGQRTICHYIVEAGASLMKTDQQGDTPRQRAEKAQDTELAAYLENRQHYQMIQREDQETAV
Chain of DGKa (P23743 whole entry): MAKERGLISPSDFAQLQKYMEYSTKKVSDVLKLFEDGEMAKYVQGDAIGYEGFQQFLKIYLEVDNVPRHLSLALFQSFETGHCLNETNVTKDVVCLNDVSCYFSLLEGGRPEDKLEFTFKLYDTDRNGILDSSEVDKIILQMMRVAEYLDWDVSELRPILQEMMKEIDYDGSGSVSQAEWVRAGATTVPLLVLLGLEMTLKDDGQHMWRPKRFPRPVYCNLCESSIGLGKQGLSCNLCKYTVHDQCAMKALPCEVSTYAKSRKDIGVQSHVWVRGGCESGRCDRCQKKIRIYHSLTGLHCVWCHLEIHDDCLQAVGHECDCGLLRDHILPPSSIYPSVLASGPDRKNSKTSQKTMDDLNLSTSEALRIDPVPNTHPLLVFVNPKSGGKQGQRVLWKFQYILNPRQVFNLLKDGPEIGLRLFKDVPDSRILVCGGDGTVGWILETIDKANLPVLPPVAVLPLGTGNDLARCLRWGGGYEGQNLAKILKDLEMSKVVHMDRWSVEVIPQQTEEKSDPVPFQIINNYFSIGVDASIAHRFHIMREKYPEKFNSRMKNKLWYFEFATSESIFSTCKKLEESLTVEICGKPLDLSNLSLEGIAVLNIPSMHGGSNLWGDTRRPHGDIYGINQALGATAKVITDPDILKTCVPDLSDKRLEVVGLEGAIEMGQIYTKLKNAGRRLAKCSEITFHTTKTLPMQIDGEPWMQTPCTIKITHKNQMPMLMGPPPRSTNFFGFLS

By IC50 is commonly meant the point on the concentration scale where inhibition reaches its midpoint. Low values mean inhibition by little substance, high ones a need for much substance. On to `CC[C@H]1CN([C@@H](CC)c2ccc(C(F)(F)F)cc2)[C@H](CC)CN1c1nc2nncn2c2ccc(C#N)nc12` (single isomer, unassigned) [Compound 34], for which the IC50 in test [1] and in test [2] was under 100 nM in each case.

With `CC[C@H]1CN([C@H](CC)c2ccc(C(F)(F)F)cc2)[C@H](CC)CN1c1nc2nncn2c2ccc(C#N)nc12` (single isomer, unassigned) [Compound 35], the IC50 in test [1] was under 100 nM; in test [2] it was 100 to 1000 nM.

On to `CC[C@H]1CN([C@@H](CC)c2ccc(SC(F)(F)F)cc2)[C@H](CC)CN1c1nc2nncn2c2ccc(C#N)nc12` (single isomer, unassigned) [Compound 68], for which the IC50 in test [1] was under 100 nM; in test [2] it was 100 to 1000 nM.

In the case of `CC[C@H]1CN([C@@H](CC)c2ccc(SC(F)(F)F)cc2)[C@H](CC)CN1c1nc2nncn2c2ccc(C#N)nc12` (single isomer, unassigned) [Compound 69], the IC50 in test [1] was under 100 nM; in test [2] it was 100 to 1000 nM.

Turning to `CC[C@@H]1CN(c2nc3nncn3c3ccc(C#N)nc23)[C@@H](C)CN1[C@@H](CC)c1ccc(C(F)(F)F)cc1` (single isomer, unassigned) [Compound 81], the IC50 in test [1] and in test [2] was under 100 nM in each case.

For `CC[C@H]1CN([C@@H](CC)c2ccc(OC(F)(F)F)cc2)[C@H](CC)CN1c1nc2nncn2c2ccc(C#N)nc12` (single isomer, unassigned) [Compound 100], the IC50 in test [1] and in test [2] was under 100 nM throughout.

Turning to `CC[C@H]1CN([C@@H](CC)c2ccc(C(F)(F)F)cc2)[C@H](CC)CN1c1nc2nncn2c2ccc(C#N)nc12` (single isomer, unassigned) [Compound 109], the IC50 in test [1] and in test [2] was under 100 nM each time.

As to `CC[C@H]1CN([C@H](CC)c2ccc(C(F)(F)F)cc2)[C@H](CC)CN1c1nc2nncn2c2ccc(C#N)nc12` (single isomer, unassigned) [Compound 110], the half-inhibitory concentration (IC50) is under 100 nM in test [1] and 100 to 1000 nM in test [2].

Take `CC[C@H]1CN(C(c2ccc(S(F)(F)(F)(F)F)cc2)C2CC2)[C@H](CC)CN1c1nc(=O)n(C)c2ccc(C#N)nc12` (single isomer, unassigned) [Compound 117]: the concentration for half-maximal inhibition (IC50) in test [1] is under 100 nM; in test [2] it was 100 to 1000 nM.

In the case of `CC[C@H]1CN(C(c2ccc(S(F)(F)(F)(F)F)cc2)C2CC2)[C@H](CC)CN1c1nc(=O)n(C)c2ccc(C#N)nc12` (single isomer, unassigned) [Compound 118], the half-maximal inhibitory concentration (IC50) was under 100 nM in test [1] and 100 to 1000 nM in test [2].

Turning to `CC[C@H]1C[C@H](Oc2ccc(OC(F)(F)F)cc2)CCN1c1nc(=O)n(C)c2ccc(C#N)nc12` (stereo in doubt) [Compound 18], the half-maximal inhibitory concentration (IC50) in test [1] is under 100 nM; in test [2], 100 to 1000 nM.

Consider `CC[C@H]1CN([C@H](C)c2ccc(SC(F)(F)F)cc2)[C@H](CC)CN1c1nc2nncn2c2ccc(C#N)nc12` (stereo in doubt) [Compound 52], for which the IC50 in test [1] is under 100 nM; in test [2], 100 to 1000 nM.

On to `CC[C@H]1CN([C@H](CC)c2cccc(S(F)(F)(F)(F)F)c2)[C@H](CC)CN1c1nc(=O)n(C)c2ccc(C#N)nc12` (stereo in doubt) [Compound 55], for which the half-inhibitory concentration (IC50) in test [1] and in test [2] was under 100 nM in each case.

As to `CC[C@H]1CN([C@H](CC)c2cccc(S(F)(F)(F)(F)F)c2)[C@H](CC)CN1c1nc(=O)n(C)c2ccc(C#N)nc12` (stereo in doubt) [Compound 56], the IC50 in test [1] and in test [2] was 100 to 1000 nM each time.

`CC[C@@H]1CN(c2nc(=O)n(C)c3ccc(C#N)nc23)[C@@H](C)CN1[C@@H](CC)c1ccc(S(F)(F)(F)(F)F)cc1` (stereo in doubt) [Compound 60]: the IC50 in test [1] and in test [2] was under 100 nM each time.

Take `CC[C@@H]1CN(c2nc(=O)n(C)c3ccc(C#N)nc23)[C@@H](C)CN1[C@H](CC)c1ccc(S(F)(F)(F)(F)F)cc1` (stereo in doubt) [Compound 61]: the IC50 in test [1] and in test [2] was 100 to 1000 nM each time.

As to `CC[C@H]1CN([C@@H](C)c2ccc(S(F)(F)(F)(F)F)cc2)[C@H](CC)CN1c1nc(=O)n(C)c2ccc(C#N)nc12` (stereo in doubt) [Compound 62], the half-maximal inhibitory concentration (IC50) in test [1] was under 100 nM; in test [2] it was 100 to 1000 nM.

In the case of `CC[C@H]1CN([C@H](C)c2ccc(S(F)(F)(F)(F)F)cc2)[C@H](CC)CN1c1nc(=O)n(C)c2ccc(C#N)nc12` (stereo in doubt) [Compound 63], the IC50 in test [1] was under 100 nM; in test [2], 100 to 1000 nM.

Regarding `CC[C@@H]1CN(c2nc3nncn3c3ccc(C#N)nc23)[C@@H](C)CN1[C@@H](CC)c1ccc(SC(F)(F)F)cc1` (stereo in doubt) [Compound 66], the IC50 in test [1] and in test [2] was under 100 nM throughout.

As to `CC[C@H]1CN([C@H](c2ccc(SC(F)(F)F)cc2)c2nc(C3CC3)no2)[C@H](CC)CN1c1nc(=O)n(C)c2ccc(C#N)nc12` (stereo in doubt) [Compound 70], the IC50 in test [1] and in test [2] was under 100 nM in each case.

With `CC[C@@H]1CN(c2nc3nncn3c3ccc(C#N)nc23)[C@@H](C)CN1[C@H](CC)c1ccc(SC(F)(F)F)cc1` (stereo in doubt) [Compound 71], the half-maximal inhibitory concentration (IC50) was under 100 nM in test [1] and 100 to 1000 nM in test [2].

As to `CC[C@H]1C[C@]2(CCN1c1nc(=O)n(C)c3ccc(C#N)nc13)CC(c1ccc(OC(F)(F)F)cc1)=NO2` (stereo in doubt) [Compound 74], the half-inhibitory concentration (IC50) in test [1] was under 100 nM; in test [2], over 1000 nM.

Regarding `CC[C@@H]1C[C@@]2(CCN1c1nc(=O)n(C)c3ccc(C#N)nc13)CC(c1ccc(OC(F)(F)F)cc1)=NO2` (stereo in doubt) [Compound 75], the IC50 in test [1] and in test [2] was 100 to 1000 nM in each case.

In the case of `CC[C@H]1CN([C@H](CC)c2ccc(S(F)(F)(F)(F)F)cc2)[C@H](CC)CN1c1nc(=O)n2c3c(cc(C#N)nc13)OCC2` (stereo in doubt) [Compound 79], the IC50 in test [1] and in test [2] was 100 to 1000 nM each time.

For the molecule `CC[C@@H]1CN(c2nc3nncn3c3ccc(C#N)nc23)[C@@H](C)CN1[C@@H](CC)c1ccc(S(F)(F)(F)(F)F)cc1` (stereo in doubt) [Compound 80], the half-inhibitory concentration (IC50) in test [1] and in test [2] was under 100 nM in each case.

Turning to `CC[C@@H]1CN(c2nc3nncn3c3ccc(C#N)nc23)[C@@H](C)CN1[C@H](CC)c1ccc(C(F)(F)F)cc1` (stereo in doubt) [Compound 82], the 50% inhibitory concentration (IC50) in test [1] is under 100 nM; in test [2], 100 to 1000 nM.

`CC[C@H]1CN([C@@H](CC)c2ccc(S(F)(F)(F)(F)F)cc2)[C@H](CC)CN1c1nc(=O)n2c3c(cc(C#N)nc13)OCC2` (stereo in doubt) [Compound 83]: the IC50 in test [1] was under 100 nM; in test [2], 100 to 1000 nM.

As to `CC[C@H]1CN([C@@H](CC)c2ccc(S(F)(F)(F)(F)F)cc2)[C@H](CC)CN1c1nc2nncn2c2ccc(C#N)nc12` (stereo in doubt) [Compound 86], the IC50 in test [1] and in test [2] was under 100 nM in each case.

As to `CC[C@H]1CN([C@@H](C)c2ccc(S(F)(F)(F)(F)F)cc2)[C@H](CC)CN1c1nc2nncn2c2ccc(C#N)nc12` (stereo in doubt) [Compound 88], the half-inhibitory concentration (IC50) in test [1] and in test [2] was under 100 nM each time.

For the molecule `CC[C@H]1CN([C@H](C)c2ccc(S(F)(F)(F)(F)F)cc2)[C@H](CC)CN1c1nc2nncn2c2ccc(C#N)nc12` (stereo in doubt) [Compound 89], the half-inhibitory concentration (IC50) was under 100 nM in test [1] and 100 to 1000 nM in test [2].

Turning to `CC[C@@H]1CN(c2nc3nncn3c3ccc(C#N)nc23)[C@@H](C)CN1[C@H](CC)c1ccc(S(F)(F)(F)(F)F)cc1` (stereo in doubt) [Compound 90], the IC50 in test [1] is under 100 nM; in test [2], 100 to 1000 nM.

For the molecule `CC[C@H]1CN([C@H](CC)c2ccc(OC(F)(F)F)cc2)[C@H](CC)CN1c1nc2nncn2c2ccc(C#N)nc12` (stereo in doubt) [Compound 101], the figures for the IC50 in test [1] and in test [2] were under 100 nM and 100 to 1000 nM, respectively.

On to `CC[C@H]1CN([C@@H](CC)c2cccc(C(F)(F)F)c2)[C@H](CC)CN1c1nc2nncn2c2ccc(C#N)nc12` (stereo in doubt) [Compound 105], for which the 50% inhibitory concentration (IC50) in test [1] and in test [2] was under 100 nM throughout.

Regarding `CC[C@H]1CN([C@H](CC)c2cccc(C(F)(F)F)c2)[C@H](CC)CN1c1nc2nncn2c2ccc(C#N)nc12` (stereo in doubt) [Compound 106], the half-inhibitory concentration (IC50) in test [1] was under 100 nM; in test [2], 100 to 1000 nM.

For `CC[C@H]1CN([C@@H](CC)c2ccc(C(F)(F)F)nc2)[C@H](CC)CN1c1nc2nncn2c2ccc(C#N)nc12` (stereo in doubt) [Compound 111], the IC50 in test [1] and in test [2] was under 100 nM each time.

With `CC[C@H]1CN([C@H](CC)c2ccc(C(F)(F)F)nc2)[C@H](CC)CN1c1nc2nncn2c2ccc(C#N)nc12` (stereo in doubt) [Compound 112], the IC50 is under 100 nM in test [1] and 100 to 1000 nM in test [2].

Take `CC[C@H]1CN([C@@H](CC)c2ccc(OC)cc2F)[C@H](CC)CN1c1nc2nncn2c2ccc(C#N)nc12` (stereo in doubt) [Compound 115]: the IC50 in test [1] and in test [2] was under 100 nM each time.

As to `CC[C@H]1CN([C@H](CC)c2ccc(OC)cc2F)[C@H](CC)CN1c1nc2nncn2c2ccc(C#N)nc12` (stereo in doubt) [Compound 116], the half-inhibitory concentration (IC50) was under 100 nM in test [1] and 100 to 1000 nM in test [2].

As to `Cn1c(=O)nc(N2CCC3(CCN(c4ccc(OC(F)(F)F)cc4)C3)CC2)c2nc(C#N)ccc21` [Compound 8], the half-inhibitory concentration (IC50) in test [1] and in test [2] was 100 to 1000 nM each time.

Consider `Cc1ccccc1-n1cc(C2CCN(c3nc(=O)n(C)c4ccc(C#N)nc34)CC2)cn1` [Compound 12], for which the 50% inhibitory concentration (IC50) in test [1] and in test [2] was over 1000 nM each time.

With `Cn1c(=O)c(C(N)=O)c(N2CCC3(CN(c4ccc(OC(F)(F)F)cc4)C3)C2)c2nc(C#N)ccc21` [Compound 15], the half-inhibitory concentration (IC50) is under 100 nM in test [1] and over 1000 nM in test [2].
